Data as given in article PMC6321136, “Combined In Vitro Studies and in Silico Target Fishing for the Evaluation of the Biological Activities of Diphylleia cymosa and Podophyllum hexandrum” (Molecules, 2018).

Legend:
Angiogenesis model = tested on: Angiogenesis model; parameters: method as in PubChem Bioassay AID 1117340; details: ref PubChem Bioassay AID 1117340; cited from earlier work
Agonist, Histone H2A.x = tested on: Agonist, Histone H2A.x; parameters: method as in PubChem Bioassay AID 1224896; details: ref PubChem Bioassay AID 1224896; cited from earlier work
[1] = target: T1, acetylcholinesterase enzyme (Electropardus electricous type VI-S) (Electrophorus electricus, UniProt O42275); assay: AChE bioautographic assay (TLC); format: biochemical; parameters: key: -: not active; +: slight inhibition; ++++: strong inhibition; details: intensity of white bands
T1 construct: purchased Sigma-Aldrich, St. Louis, MO, USA type VI-S (catalogue number not given)
T1 sequence (O42275 24-633): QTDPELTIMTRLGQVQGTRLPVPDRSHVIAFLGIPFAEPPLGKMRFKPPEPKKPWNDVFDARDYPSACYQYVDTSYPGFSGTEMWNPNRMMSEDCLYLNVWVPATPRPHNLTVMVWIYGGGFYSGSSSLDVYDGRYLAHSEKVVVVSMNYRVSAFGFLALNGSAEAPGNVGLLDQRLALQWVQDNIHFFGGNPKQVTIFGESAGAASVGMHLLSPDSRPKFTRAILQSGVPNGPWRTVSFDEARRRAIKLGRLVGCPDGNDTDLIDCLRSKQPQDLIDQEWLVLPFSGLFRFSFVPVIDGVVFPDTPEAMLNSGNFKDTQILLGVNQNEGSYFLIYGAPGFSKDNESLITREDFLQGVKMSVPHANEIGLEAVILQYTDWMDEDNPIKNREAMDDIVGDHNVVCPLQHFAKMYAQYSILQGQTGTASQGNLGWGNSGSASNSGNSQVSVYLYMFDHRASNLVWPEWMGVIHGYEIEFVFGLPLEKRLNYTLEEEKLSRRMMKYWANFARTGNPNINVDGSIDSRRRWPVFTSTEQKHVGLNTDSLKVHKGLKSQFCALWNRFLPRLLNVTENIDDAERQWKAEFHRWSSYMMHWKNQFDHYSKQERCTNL
Procedure: The bioautographic assay was performed by thin layer chromatography (TLC) according to the method proposed by Marston, Kissling and Hostettman. The extracts were solubilized in methanol (Merck) at 20 mg/mL, and a portion of 10 μL of this solution was applied on a TLC plate (silica gel 60 F254, Merck, Darmstadt, Germany), which was eluted with CHCl3:MeOH (9:1). The acetylcholinesterase enzyme (Electropardus electricous type VI-S, Sigma-Aldrich, St. Louis, MO, USA) solution was prepared by diluting 1 KU of the enzyme in 30 mL of Tris/HCl buffer, pH 7.8, with the addition of 30 mg of bovine serum albumin (BSA). The enzyme solution was sprayed on the TLC plate and incubated in a humid chamber at 37 °C for 20 min. The substrate solution was prepared using 1-naphthyl acetate (2.5 mg/mL) and Fast Blue B salt (2.5 mg/mL), and sprayed on the TLC plate after the incubation period. […] The result was expressed by the intensity of the white bands observed.

[2] = tested on: Antagonist, androgen receptor (AR); parameters: method as in PubChem Bioassay AID 743042; details: ref PubChem Bioassay AID 743042; cited from earlier work

Compound: COc1cc([C@@H]2c3cc4c(cc3[C@H](O)[C@H]3COC(=O)[C@H]23)OCO4)cc(OC)c1OC [Podophyllotoxin, podophyllotoxin]
- Exper. Activity (Angiogenesis model): Active
- Exper. Activity (Agonist, Histone H2A.x): Inactive
- Inhibition of AChE TLC [1]: -
- Exper. Activity [2]: Inactive
